{"source": "patent US8173438B1", "about": "“Microbiological assessment method and device utilizing oxygen gradient sensing” (Photonic BioSystems, Inc., priority 1996, dated 2012)", "type_in_all_cases": "cell-based", "key": {"B. subtilis cells": {"tested_on": "B. subtilis cells", "test": "Companion study: integrated sensor-BI, 8,000 cells collected by filtration on glass-fiber oxygen-sensor disks", "details": "for signal change: at about 3.5 hours (control 5% signal increase)", "method": "A similar companion study, indicated the potential of the integrated sensor-BI to detect microbial activity and identify antibiotic sensitivity in several hours, using a small number of organisms to initiate the test. Inoculum of only 8,000 B. subtilis cells were collected by filtration, similar to Example 9, on oxygen-sensor disks made from Millipore AP-40 glass-fiber filter material (0.7 micron particle retention). In about 3.5 hours, without antibiotic present, the population expanded in the integrated biological sensor control, producing a 5% level signal increase, i.e. positive indication of outgrowth. […] After 8 hours of incubation, the low-dose penicillin exposed population eventually expanded enabling assay detection of outgrowth. No activity was identified in the sample exposed to the high dose at any point over the 20 hour assay."}, "B. subtilis organisms [1]": {"tested_on": "B. subtilis organisms", "test": "Bulk-volume suspension culture antibiotic test with oxygen-sensor disk at vessel bottom", "details": "after 60 minutes, control 2%", "method": "Alternatively, as a comparison of outgrowth and detection of antibiotic effects under bulk-volume assay conditions, identical aliquots of B. subtilis organisms were and mixed into 1 ml samples of TSB media prepared with and without penicillin as described above and dispensed into vessels. To measure oxygen consumption of the organisms in these bulk suspension samples, oxygen-sensor disks of the same derivation as the above integrated sensors, but without organisms applied to them, were placed in the bottom of the vessels.\n(§1) All samples were prepared and cultured in parallel, incubated at 37° C. and the oxygen consumption tracked via the integrated sensors' luminescent signals, in a manner similar to that shown in FIG. 7. […] The inhibitory effect of penicillin on organisms' growth was already manifesting itself in this time frame.\nBy comparison, the bulk volume cultures of B. subtilis after 60 minutes were just beginning to show indications of growth but were too early into the assay to identify inhibitory effects. The control, without antibiotic present, was just 2% above baseline, which was the same signal level as the 5 ng/ml penicillin sample. The 5 ug/ml high dose registered 1% above baseline."}, "B. subtilis organisms [2]": {"tested_on": "B. subtilis organisms", "test": "Integrated biological sensor disk antibiotic susceptibility test (oxygen consumption via luminescent signal), 400,000 cells per disk", "method": "In this example, organisms were applied to the integrated biological sensor disk in order to attain rapid measures of activity within the disk's microenvironment while the disk was incubated in culture media containing the antibiotic being assayed for effects on the microbial population.\nB. subtilis organisms were cultured in Trypticase Soy Broth (TSB) media to obtain an inoculum of actively growing test organisms. Twenty microliter aliquots, each containing 400,000 cells (established by subsequent plate counting), were removed, and dispensed onto 0.25 inch diameter dry oxygen-sensor disks prepared from 0.45 micron pore cellulose-ester filter membrane stock (Millipore), in a manner similar to that described in Example 7. These integrated biological sensor disks bearing organisms were placed at the bottom of sterile polypropylene vessels, to which was added 1 ml of TSB media containing penicillin at concentrations of 5 ug/ml, or 5 ng/ml, or no antibiotic in the case of the positive growth control.\nas §1"}}, "data": [{"substance": "penicillin", "values": [{"measurement": "activity (outgrowth / oxygen consumption)", "setting": "B. subtilis cells; high dose penicillin (5 ug/ml), at any point over the 20 hour assay", "result": "No activity"}, {"measurement": "incubation time to assay detection of outgrowth", "setting": "B. subtilis cells; low-dose penicillin (5 ng/ml), control about 3.5 hours", "result": 8, "unit": "h"}, {"measurement": "signal change", "setting": "B. subtilis cells; penicillin 5 ng/ml", "result": "No signal change"}, {"measurement": "signal change", "setting": "B. subtilis cells; penicillin 5 ug/ml", "result": "No signal change"}, {"measurement": "signal above baseline", "setting": "B. subtilis organisms [1]; penicillin 5 ng/ml", "result": 2, "unit": "%"}, {"measurement": "signal above baseline", "setting": "B. subtilis organisms [1]; penicillin 5 ug/ml", "result": 1, "unit": "%"}, {"measurement": "sensitivity of the organisms to the antibiotic", "setting": "B. subtilis organisms [2]; conclusion from 5 ng/ml and 5 ug/ml samples", "result": "sensitive"}, {"measurement": "signal increase (luminescent oxygen sensor signal above baseline)", "setting": "B. subtilis organisms [2]; penicillin 5 ng/ml, after 60 minutes of assay, 37° C., TSB media, control without penicillin 12%", "result": 6, "unit": "%"}, {"measurement": "metabolic activity (oxygen consumption)", "setting": "B. subtilis organisms [2]; penicillin 5 ug/ml, throughout 40 hours of monitoring, 37° C.", "result": "no evidence of metabolic activity"}]}]}
